Test results published in PubChem BioAssay (NCI).
Where “and” joins values, the source holds several entries; their conditions need not be identical. Equal values may be shown once.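 All cell lines were grown in 96-well plates and treated with compound for 48 hours. The concentration for 50% growth inhibition is given as GI50. TGI is the concentration that stops growth completely.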

How the values were obtained:
Experiment in all cases: inhibition of tumour cell growth, NCI panel, 48 h
OVCAR-4 ovarian = system: OVCAR-4 ovarian
MDA-MB-435 = system: MDA-MB-435
U251 CNS = system: U251 CNS
HL-60(TB) leukemia = system: HL-60(TB) leukemia
HT29 colon = system: HT29 colon
LOX IMVI melanoma = system: LOX IMVI melanoma
OVCAR-8 ovarian = system: OVCAR-8 ovarian
SNB-19 CNS = system: SNB-19 CNS
MDA-N = system: MDA-N
NCI-H522 lung = system: NCI-H522 lung

Structure (SMILES): O=C(O[C@@H](/C=C/c1ccccc1)P1(=O)N(Cc2ccccc2)[C@@H]2CCCC[C@H]2N1Cc1ccccc1)c1ccccc1
- TGI (OVCAR-4 ovarian): 6.33 µM
- TGI (MDA-MB-435): 68.7 µM
- TGI (U251 CNS): > 100 µM
- TGI (HL-60(TB) leukemia): > 100 µM
- TGI (HT29 colon): > 100 µM
- TGI (LOX IMVI melanoma): 11.1 µM
- TGI (OVCAR-8 ovarian): > 100 µM
- TGI (SNB-19 CNS): > 100 µM
- TGI (MDA-N): > 100 µM
- TGI (NCI-H522 lung): > 100 µM

Structure (SMILES): CC1CCc2sc3[nH]c(=S)n(C)c(=O)c3c2C1 (stereo unspecified)
- TGI (OVCAR-4 ovarian): > 100 µM
- TGI (MDA-MB-435): > 100 µM
- TGI (U251 CNS): > 100 µM
- TGI (HL-60(TB) leukemia): 26.2 µM
- TGI (HT29 colon): > 100 µM
- TGI (LOX IMVI melanoma): > 100 µM
- TGI (OVCAR-8 ovarian): > 100 µM
- TGI (SNB-19 CNS): > 100 µM
- TGI (MDA-N): > 100 µM
- TGI (NCI-H522 lung): 84.5 µM

Structure (SMILES): CSc1ncnc2c1cnn2Cc1cn(COCC(O)CO)nn1 (stereo unspecified)
- TGI (OVCAR-4 ovarian): > 100 µM
- TGI (MDA-MB-435): > 100 µM
- TGI (U251 CNS): > 100 µM
- TGI (HL-60(TB) leukemia): > 100 µM
- TGI (HT29 colon): > 100 µM
- TGI (LOX IMVI melanoma): > 100 µM
- TGI (OVCAR-8 ovarian): > 100 µM
- TGI (SNB-19 CNS): > 100 µM
- TGI (MDA-N): > 100 µM
- TGI (NCI-H522 lung): 44.6 µM

Structure (SMILES): Cc1nn(C(=O)c2ccccc2O)c2c1C(c1ccc([N+](=O)[O-])cc1)SC(N)=N2 (stereo unspecified)
- TGI (OVCAR-4 ovarian): > 10 µM
- TGI (MDA-MB-435): > 10 µM
- TGI (U251 CNS): > 10 µM
- TGI (HL-60(TB) leukemia): > 10 µM
- TGI (HT29 colon): > 10 µM
- TGI (LOX IMVI melanoma): > 10 µM
- TGI (OVCAR-8 ovarian): > 10 µM
- TGI (SNB-19 CNS): > 10 µM
- TGI (MDA-N): > 10 µM
- TGI (NCI-H522 lung): > 10 µM

Structure (SMILES): CC(=O)Nc1ccc2c(c1)nc1c3ccccc3ccn21
- TGI (OVCAR-4 ovarian): > 100 µM
- TGI (MDA-MB-435): > 100 µM
- TGI (U251 CNS): > 100 µM
- TGI (HL-60(TB) leukemia): > 100 µM
- TGI (HT29 colon): > 100 µM
- TGI (LOX IMVI melanoma): > 100 µM
- TGI (OVCAR-8 ovarian): > 100 µM
- TGI (SNB-19 CNS): > 100 µM
- TGI (MDA-N): > 100 µM
- TGI (NCI-H522 lung): > 100 µM

Structure (SMILES): COc1ccc2c(c1)CCC(CN1CCN(CCOC(c3ccccc3)c3ccccc3)CC1)C2O (stereo unspecified)
- TGI (OVCAR-4 ovarian): 33.2 µM
- TGI (MDA-MB-435): 32 µM
- TGI (U251 CNS): 28 µM
- TGI (HL-60(TB) leukemia): 15.2 µM
- TGI (HT29 colon): 18.2 µM
- TGI (LOX IMVI melanoma): 32.5 µM
- TGI (OVCAR-8 ovarian): 28.9 µM
- TGI (SNB-19 CNS): 33.6 µM
- TGI (MDA-N): 28.1 µM
- TGI (NCI-H522 lung): 31 µM

Structure (SMILES): COc1ccc(C(=C2C(=O)OC(=O)C2=C(C)C)c2ccc(OC)cc2)cc1
- TGI (OVCAR-4 ovarian): 92.5 µM
- TGI (MDA-MB-435): > 100 µM
- TGI (U251 CNS): > 100 µM
- TGI (HL-60(TB) leukemia): 84.3 µM
- TGI (HT29 colon): > 100 µM
- TGI (LOX IMVI melanoma): > 100 µM
- TGI (OVCAR-8 ovarian): > 100 µM
- TGI (SNB-19 CNS): > 100 µM
- TGI (MDA-N): > 100 µM
- TGI (NCI-H522 lung): 55.7 µM

Structure (SMILES): CCOC(=O)C(NC(=O)CC)(Nc1ccccc1F)C(F)(F)F (stereo unspecified)
- TGI (OVCAR-4 ovarian): > 100 µM
- TGI (MDA-MB-435): > 100 µM
- TGI (U251 CNS): > 100 µM
- TGI (HL-60(TB) leukemia): > 100 µM
- TGI (HT29 colon): > 100 µM
- TGI (LOX IMVI melanoma): > 100 µM
- TGI (OVCAR-8 ovarian): > 100 µM
- TGI (SNB-19 CNS): > 100 µM
- TGI (MDA-N): > 100 µM
- TGI (NCI-H522 lung): > 100 µM

Structure (SMILES): CC(C)(C)[Si](C)(C)OC1CCOC1(O)c1ccccn1 (stereo unspecified)
- TGI (OVCAR-4 ovarian): > 100 µM
- TGI (MDA-MB-435): > 100 µM
- TGI (U251 CNS): > 100 µM
- TGI (HL-60(TB) leukemia): > 100 µM
- TGI (HT29 colon): > 100 µM
- TGI (LOX IMVI melanoma): > 100 µM
- TGI (OVCAR-8 ovarian): > 100 µM
- TGI (SNB-19 CNS): > 100 µM
- TGI (MDA-N): > 100 µM
- TGI (NCI-H522 lung): > 100 µM

Structure (SMILES): CCOC(=O)c1c(-c2ccc(OC)cc2)c(C#N)c(=S)n(C2OC(CO)C(O)C(O)C2O)c1C (stereo unspecified)
- TGI (OVCAR-4 ovarian): > 100 µM
- TGI (MDA-MB-435): > 100 µM
- TGI (U251 CNS): > 100 µM
- TGI (HL-60(TB) leukemia): > 100 µM
- TGI (HT29 colon): > 100 µM
- TGI (LOX IMVI melanoma): > 100 µM
- TGI (OVCAR-8 ovarian): > 100 µM
- TGI (SNB-19 CNS): > 100 µM
- TGI (MDA-N): > 100 µM
- TGI (NCI-H522 lung): > 100 µM

Structure (SMILES): O=C(CCl)Nc1ccc(C(=O)N/N=C/c2ccc(Cl)cc2)cc1
- TGI (OVCAR-4 ovarian): 4.48 µM and 4.43 µM
- GI50 (MDA-MB-435): 9.67 µM
- TGI (MDA-MB-435): 3.27 µM and 21.7 µM
- TGI (U251 CNS): 3.61 µM and 3.24 µM
- GI50 (HL-60(TB) leukemia): 1.19 µM
- TGI (HL-60(TB) leukemia): 6.51 µM and 3.77 µM
- GI50 (HT29 colon): 2.25 µM
- TGI (HT29 colon): 3.18 µM and 4.61 µM
- GI50 (LOX IMVI melanoma): 1.72 µM
- TGI (LOX IMVI melanoma): 3.5 µM and 2.91 µM
- TGI (OVCAR-8 ovarian): 5.29 µM and 6.97 µM
- GI50 (SNB-19 CNS): 3.09 µM
- TGI (SNB-19 CNS): 5.74 µM and 20.1 µM
- GI50 (MDA-N): 11 µM
- TGI (MDA-N): 3.69 µM and 24.3 µM
- TGI (NCI-H522 lung): 3.6 µM and 3.61 µM
